Patent US4946834A, “Phosphonic acid substituted steroids as steroid 5α-reductase inhibitors” (priority 1988, dated 1990)
Read-outs that look alike come from different tables or passages of the source.

Assays:
[1] = system: steroid 5α-reductase; conditions: cited from earlier work; for mode of inhibition (in words): literature statement in text; for reversibility of inhibition (Reversible / Irreversible): printed in parentheses beside K1; for Ki: read-out: K1
[2] = target: T1, human steroid 5α-reductase (Homo sapiens, UniProt P31213); assay: Inhibition of human prostatic steroid 5α-reductase ([14C]-testosterone conversion, Dixon analysis); type: biochemical
T1 construct: using tissue from hyperplastic human prostates; from tissue; host or cells: frozen human prostates (hyperplastic), washed particulate fraction from differential centrifugation
T1 sequence (P31213 1-254): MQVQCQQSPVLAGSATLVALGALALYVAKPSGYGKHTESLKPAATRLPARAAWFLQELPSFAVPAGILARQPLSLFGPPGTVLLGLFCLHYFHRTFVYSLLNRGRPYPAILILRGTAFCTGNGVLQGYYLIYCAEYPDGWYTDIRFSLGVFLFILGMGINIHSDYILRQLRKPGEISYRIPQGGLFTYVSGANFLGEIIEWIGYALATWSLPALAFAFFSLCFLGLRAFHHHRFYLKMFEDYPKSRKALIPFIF
Description: In determining potency in inhibiting the human enzyme, the following procedure was employed:
The resulting pellet was suspended in 20 mM potassium phosphate buffer, pH 6.5, containing 20% glycerol, 1 mM dithiothreitol, and 50 μM NADPH. The suspended particulate solution was stored at -80° C.
To each tube was added buffer, 20 μl of 10 mM NADPH and an aliquot of prostatic particulate solution to a final volume of 1.0 ml of 50 mM sodium citrate, pH 5.0. After incubating the solution at 37° C. for 20 to 30 minutes the reaction was quenched by the addition of 4 ml ethyl acetate and 0.25 μmol each of testosterone, dihydrotestosterone, androstanediol, and androstanedione as carriers. […] The radiochemical content in the bands of the substrate and the products was determined with a BIOSCAN Imaging Scanner (Bioscan, Inc., Washington, D.C.). The percent of recovered radiolabel converted to product was calculated, from which enzyme activity was determined. […]
The experimentally obtained data was computer fitted to a linear function by plotting the reciprocal of the enzyme activity (1/velocity) against the variable inhibitor concentration (Dixon, M. (1953), Biochem. J., 55, 170). Assuming that the steroidal inhibitor is a competitive inhibitor against testosterone, a value for the inhibition constant (Ki) can be calculated from equation 1: […]

[3] = 5α-reductase inhibitors, literature reference given per compound

Row | SMILES | reversibility of inhibition (Reversible / Irreversible) [1] | Ki [1, 3] [nM] | also measured
1 | CC(CO)[C@H]1CC[C@H]2[C@@H]3CC[C@H]4C(=[N+]=[N-])C(=O)CC[C@]4(C)[C@H]3CC[C@]12C (some centres unmarked) [(3)] | Irreversible | – | mode of inhibition (in words) [1]: potent, time-dependent inhibitor of steroid 5α-reductase; Ki ([1]; unit inferred, Blohm, et al., 1980): 35 nM
2 | C=C1C[C@@H]2[C@H](CC[C@@]3(C)[C@H]2CC[C@]3(OC(C)=O)C(C)=O)[C@@]2(C)CCC(=O)C=C12 [(5)] | Irreversible | 1250 | mode of inhibition (in words) [1]: time dependent inactivator of steroid 5α-reductase
3 | CC(=O)C1CCC2C3CC=C=CC(=O)CCC(=O)C3CCC12C (centres unmarked) [(2)] | Irreversible | 1000 | –
4 | C[C@]12CC[C@H]3[C@@H](CCC4=CC(=O)CC[C@@]43C)[C@@H]1CC[C@@H]2C(=O)O [(1)] | Reversible | 1100 | –
5 | CC(C)N(C(=O)[C@H]1CC[C@H]2[C@@H]3CCC4=CC(P(=O)(O)O)=CC[C@]4(C)[C@H]3CC[C@]12C)C(C)C [Example 30, 17β-(N,N-diisopropylcarboxamide)-androst-2,4-diene-3-phosphonic acid] | – | – | Ki [2]: 160 nM
6 | CCN(CC)C(=O)[C@H]1CC[C@H]2[C@@H]3CC[C@H]4N(C)C(=O)CC[C@]4(C)[C@H]3CC[C@]12C [(4)] | Reversible | 5 | –
7 | CC(C)N(C(=O)[C@H]1CC[C@H]2[C@@H]3CC=C4C=C(P(=O)(O)O)CC[C@]4(C)[C@H]3CC[C@]12C)C(C)C [Example 1, 17β-(N,N-diisopropylcarboxamide)-androst-3,5-diene-3phosphonic acid] | – | – | Ki ([2]; hyperplastic human prostate particulate, pH 5.0, 37° C., 20 to 30 minutes, competitive inhibition against testosterone assumed, read-out: Ki (inhibition constant of human prostatic steroid 5α-reductase)): 15 to 40 nM
